Measurements taken from patent US4248864A, “Reproduction control” (American Home Products Corporation, priority 1979, dated 1981).
Where “and” joins values, the source holds several entries; their conditions need not be identical. Equal values may be shown once. Entries after “also recorded” stand apart in the source; their conditions may differ.

Key:
[1] = test system: Female Charles River CD rats (pregnancy); test: Post-coital contraceptive effect in the rat: single intrauterine (right horn) administration on D5 of pregnancy; format: in vivo; details: for Number of placental sites, left horn / Number of placental sites, right horn (injected) / Number of viable fetuses, left horn / Number of viable fetuses, right horn (injected) / Uterine weight, left horn and contents / Uterine weight, right horn (injected) and contents: autopsy D20, 15 rats/group; for Uterine weight, left horn and contents / Uterine weight, right horn (injected) and contents: in g
Procedure: Female Charles River CD® rats (200-210 g) were allowed to cohabit with proven males; the presence of sperm in the vaginal smear was considered day 1 (D1) of pregnancy. In order to lessen the problem of variability between experiments, 5 rats were autopsied at each dose level and the study replicated 3 times to accumulate a total of 15 rats in each experimental group. Luteinizing hormone-releasing hormone was dissolved in 2 μl of 0.9% NaCl and injected into the right horn of the uterus below the utero-tubal junction between 0945 and 1015 h on D5. One group of control animals received an intrauterine (IU) injection of 2 μl saline into the right horn on D5. The control animals were autopsied in groups of 5 rats and replicated 3 times to accumulate a total of 15 rats. On D20 the rats were sacrificed, and the uterine horns were divided and weighed individually. The number of viable fetuses as well as the number of placental sites in each horn was recorded. Fetuses from both horns, in control and experimental groups, were examined and weighed individually. A viable fetus is defined as one which compares in anatomical development and weight to a normal control fetus at D20 of gestation. Statistical analysis of the number of viable fetuses and placental sites in each horn was determined by the Kruwalc-Henderson method (Proc. Third Am. Conference of the SAS Users Group International, SAS Institute, Raleigh, North Carolina (1978)); uterine weights of each horn were subjected to analysis of variance (Conover, Practical Nonparametric Statistics, N.Y. John Wiley and Sons, Inc. page 256 (1979)).
Following the same procedure, [D-Trp^6, des-Gly-NH2^10 ]LHRH ethylamide (a representative LHRH agonist analogue) was injected into the uterine lumen of the right uterine horn of female Charles River CD® rats on day 5 after coitus. The status of the pregnancy as indicated by viable fetuses was as follows: […]

[2] = test system: zona pellucida of blastocyst; test: In vitro removal (lysis) of the zona pellucida of a blastocyst; format: cell-based
Source text: To denude a blastocyst of its zona pellucide in vitro the fertilized ovum is removed from the uterus of the donor animal by known means. The blastocyst is then placed in a small volume of known compatable medium such as physiological saline and LHRH or an agonist is introduced into the medium. The course of removal of the zona pellucida may be readily followed with a microscope and the time period necessary for complete removal of the zona is related to the concentration of the releasing hormone, thereby permitting timed blastocyst release during egg transplant procedures. At 500 μg/μl LHRH in 0.9 percent saline the zona pellucida lyses in about 0.5 minutes; at 50 μg/μl in about 15 to 25 minutes and at 15 μg/μl in about 60 minutes. Recovery of the free blastocyst and transfer to the uterus of a properly prepared and timed mammalion species may then be effected by conventional transfer techniques under optimal timing conditions of both the fertilized egg and the uterine epithelium.

[3] = test system: Female Charles River CD rats (pregnancy); test: Single intravaginal or intrajugular administration on D5 of pregnancy; format: in vivo, rat; details: for Number of placental sites, left horn / Number of placental sites, right horn / Number of viable fetuses, left horn / Number of viable fetuses, right horn / Uterine weight, left horn / Uterine weight, right horn: 5 rats/group; for Uterine weight, left horn / Uterine weight, right horn: in g
pregnancy = details: cited from earlier work
[4] = 100 μg intrauterine right horn D5
[5] = 200 μg intrauterine right horn D5
[6] = 300 μg intrauterine right horn D5
[7] = 500 μg intrauterine right horn D5
[8] = 1,000 μg intrauterine right horn D5
[9] = dose 1,000, single intrajugular (IV) D5
[10] = dose 1,000, single intravaginal (Vag) D5
[11] = 10 μg into right uterine horn day 5 after coitus, 4 rats
[12] = 100 μg into right uterine horn day 5 after coitus, 5 rats
[13] = 1,000 μg into right uterine horn day 5 after coitus, 4 rats

Luteinizing hormone releasing hormone [LHRH]
Number of placental sites, left horn [1, 4]: 0.1 ± 0.1 | Number of placental sites, right horn (injected) [1, 4]: 0.1 ± 0.1 | Number of viable fetuses, left horn [1, 4]: 5.7 ± 0.4 | Number of viable fetuses, right horn (injected) [1, 4]: 3.2 ± 0.3 | Uterine weight, left horn and contents [1, 4]: 19.1 ± 1.5 | Uterine weight, right horn (injected) and contents [1, 4]: 12.0 ± 1.0 | Number of placental sites, left horn [1, 5]: 0.1 ± 0.1 | Number of placental sites, right horn (injected) [1, 5]: 1.6 ± 0.5 | Number of viable fetuses, left horn [1, 5]: 5.4 ± 0.8 | Number of viable fetuses, right horn (injected) [1, 5]: 1.7 ± 0.4 | Uterine weight, left horn and contents [1, 5]: 19.4 ± 2.7 | Uterine weight, right horn (injected) and contents [1, 5]: 6.5 ± 1.3 | Number of placental sites, left horn [1, 6]: 0.7 ± 0.6 | Number of placental sites, right horn (injected) [1, 6]: 1.3 ± 0.3 | Number of viable fetuses, left horn [1, 6]: 6.5 ± 0.6 | Number of viable fetuses, right horn (injected) [1, 6]: 1.5 ± 0.4 | Uterine weight, left horn and contents [1, 6]: 21.2 ± 2.3 | Uterine weight, right horn (injected) and contents [1, 6]: 6.9 ± 1.6 | Number of placental sites, left horn [1, 7]: 0.5 ± 0.3 | Number of placental sites, right horn (injected) [1, 7]: 1.5 ± 0.7 | Number of viable fetuses, left horn [1, 7]: 6.1 ± 0.7 | Number of viable fetuses, right horn (injected) [1, 7]: 1.3 ± 0.3 | Uterine weight, left horn and contents [1, 7]: 21.8 ± 2.0 | Uterine weight, right horn (injected) and contents [1, 7]: 6.0 ± 0.9 | Number of placental sites, left horn [1, 8]: 0.3 ± 0.2 | Number of placental sites, right horn (injected) [1, 8]: 2.3 ± 0.6 | Number of viable fetuses, left horn [1, 8]: 6.9 ± 0.7 | Number of viable fetuses, right horn (injected) [1, 8]: 0.8 ± 0.2 and 0.8 | Uterine weight, left horn and contents [1, 8]: 24.3 ± 2.5 | Uterine weight, right horn (injected) and contents [1, 8]: 4.3 ± 0.8 | Number of placental sites vs control ([1]; 200-1000 μg intrauterine right horn D5): significant increase | Number of viable fetuses in the right horn vs control ([1]; all doses (100-1,000 μg) intrauterine right horn D5): significant reduction | Single intra-uterine treatment dose sufficient to prevent pregnancy [1]: about 1,000 μg | Time to lysis of the zona pellucida ([2]; 15 μg/μl in 0.9 percent saline): about 60 minutes | Time to lysis of the zona pellucida ([2]; 500 μg/μl in 0.9 percent saline): about 0.5 minutes | Effect on pregnancy (viable fetuses, uterine weight, placental sites) in either horn ([3]; 1000 μg via jugular vein or vagina on D5): failed to alter the pregnancy in either horn; also recorded: inactive; also recorded: no negative effects | Number of placental sites, left horn [3, 9]: 0.6±0.2 | Number of placental sites, right horn [3, 9]: 0.2±0.2 | Number of viable fetuses, left horn [3, 9]: 7.4±0.7 | Number of viable fetuses, right horn [3, 9]: 5.4±1.0 | Uterine weight, left horn [3, 9]: 26.3±3.0 | Uterine weight, right horn [3, 9]: 18.2±3.9 | Number of placental sites, left horn [3, 10]: 0.4±0.2 | Number of placental sites, right horn [3, 10]: 0.2±0.2 | Number of viable fetuses, left horn [3, 10]: 6.6±0.9 | Number of viable fetuses, right horn [3, 10]: 7.4±0.8 | Uterine weight, left horn [3, 10]: 20.5±2.9 | Uterine weight, right horn [3, 10]: 21.4±2.0 | Effect on number of viable fetuses or uterine weight (pregnancy; 1000 μg injection (s.c.) on D5, Humphrey et al.): failed to alter | Effect on ensuing pregnancy (pregnancy; acute subcutaneous injection of 5000 μg, Beattie and Corbin 1977): failed to inhibit the ensuing pregnancy

[D-Trp^6, des-Gly-NH2^10 ]LHRH ethylamide
Viable Fetuses Mean, Left [1, 11]: 6.5 | Viable Fetuses Mean, Right [1, 11]: 3.8 | Viable Fetuses Mean, Left [1, 12]: 3.6 | Viable Fetuses Mean, Right [1, 12]: 0.4 | Viable Fetuses Mean, Left [1, 13]: 3.3 | Viable Fetuses Mean, Right [1, 13]: 0.5

[D-Trp^6 -N-methyl-Leu^7 des-Gly NH2^10 ]LHRH ethylamide
Single intra-uterine treatment dose sufficient to prevent pregnancy [1]: 100 µg
